This is an account of results in ChEMBL document CHEMBL5137113, “Identification of Nitric Oxide-Donating Ripasudil Derivatives with Intraocular Pressure Lowering and Retinal Ganglion Cell Protection Activities” (J Med Chem, 2022).

Each structure is given as a SMILES string. Active and inactive are the calls of the source.

In data set [1] the test system is Mus musculus. The data set is described as follows: Antiglaucoma activity in microspheres induced chronic ocular hypertension C57BL/6J mouse model assessed as increase in visual acuity under maximum contrast condition at 0.26% solution administered via topical instillation and measured after 10 days by optokinetic reflex test. The class given is functional, organism-based. The settings on record: route top, time 10.0 day.

Data set [2] relates to HTM. The data set is described as follows: Inhibtion of mitochondrial respiration in HTM cells assessed as oxygen consumption rate by measuring decrease in proton leak at 10 uM incubated for 1 hr by Seahorse XF24 extracellular flux analyzer. The class given is functional, cell-based. The settings on record: Homo sapiens.
The subject of data set [3] is HTM. The data set is described as follows: Effect on MLC expression in HTM cells assessed as reduction in phosphorylated MLC/MLC ratio at 10 uM incubated for 1 hr by densitometry analysis. The class given is functional, cell-based. The settings on record: Homo sapiens.
Data set [4] relates to HTM. The data set is described as follows: Inhibtion of mitochondrial respiration in HTM cells assessed as repression of oxygen consumption rate at 10 uM incubated for 1 hr by Seahorse XF24 extracellular flux analyzer. The class given is functional, cell-based. The settings on record: Homo sapiens.
Data set [5] concerns HTM. The data set is described as follows: Induction of reversible F-actin depolymerization in HTM cells assessed as irregular arrangement of fiber bundles at 10 uM incubated for 1 hr and further incubated for 4 hrs in drug free medium by rhodamine phalloidin staining based confocal scanning microscopic analysis. The settings on record: Homo sapiens. The class given is cell-based.

Data set [6] relates to HTM. The data set is described as follows: Inhibtion of mitochondrial respiration in HTM cells assessed as oxygen consumption rate by measuring decrease in basal respiration at 10 uM incubated for 1 hr by Seahorse XF24 extracellular flux analyzer. The class given is functional, cell-based. The settings on record: Homo sapiens.
The test system of data set [7] is HTM. The data set is described as follows: Inhibtion of mitochondrial respiration in HTM cells assessed as oxygen consumption rate by measuring decrease in maximal respiration at 10 uM incubated for 1 hr by Seahorse XF24 extracellular flux analyzer. The class given is functional, cell-based. The settings on record: Homo sapiens.
Data set [8] deals with HTM. The data set is described as follows: Downregulation of phosphorylated MLC expression in HTM cells at 10 uM incubated for 1 hr by Western blotting analysis. The class given is functional, cell-based. The settings on record: Homo sapiens. For orientation: In western blotting, separated proteins are transferred to a membrane and probed.
The test system of data set [9] is HTM. The data set is described as follows: Inhibtion of mitochondrial respiration in HTM cells assessed as oxygen consumption rate by measuring decrease in coupling efficiency at 10 uM incubated for 1 hr by Seahorse XF24 extracellular flux analyzer. The class given is functional, cell-based. The settings on record: Homo sapiens.
Data set [10] has as its system HTM. The data set is described as follows: Effect of compound on intracellular cGMP concentration in HTM cells assessed as increase in cGMP level at 10 uM incubated for 24 hrs by ELISA. The class given is functional, cell-based. The settings on record: Homo sapiens. (In an ELISA, binding on a coated surface is turned into a signal by an enzyme label.)
In data set [11] the test system is Mus musculus. The data set is described as follows: Antiglaucoma activity in microspheres induced chronic ocular hypertension C57BL/6J mouse model assessed as reduction in contrast sensitivity threshold at 0.26% solution administered via topical instillation and measured after 10 days by optokinetic reflex test. The class given is functional, organism-based. The settings on record: route top, time 10.0 day.

Data set [12] concerns HTM. The data set is described as follows: Induction of NO release in HTM cells assessed as increase in positive area by DAF-FM DA dye based flow cytometry analysis. The class given is functional, cell-based. The settings on record: Homo sapiens. (In general: In flow cytometry, cells or beads pass a laser one at a time.)
Data set [13] has as its system Mus musculus. The data set is described as follows: Antiglaucoma activity in microspheres induced chronic ocular hypertension C57BL/6J mouse model assessed as reduction in intraocular pressure at 0.26% solution administered via topical instillation for three times per day and measured at 1 to 6 hrs post instillation by ophthalmotonometer. The class given is functional, organism-based. The settings on record: route top, time 1-6 hrs.

Data set [14] concerns Mus musculus. The data set is described as follows: Antiglaucoma activity in microspheres induced chronic ocular hypertension C57BL/6J mouse model assessed as increase in number of RGCs in retina at 0.26% solution administered via topical instillation and measured after 10 days by immunostaining based confocal microscopic analysis. The class given is functional, organism-based. The settings on record: route top, time 10.0 day.

The subject of data set [15] is HTM. The data set is described as follows: Inhibtion of mitochondrial respiration in HTM cells assessed as oxygen consumption rate by measuring decrease in ATP production at 10 uM incubated for 1 hr by Seahorse XF24 extracellular flux analyzer. The settings on record: Homo sapiens. The class given is functional, cell-based.
Data set [16] deals with HTM. The data set is described as follows: Induction of NO release in HTM cells assessed as increase in fluorescence intensity by DAF-FM DA dye based flow cytometry analysis. The class given is functional, cell-based. The settings on record: Homo sapiens.
Data set [17] has as its target Rho-associated protein kinase 2 (Homo sapiens, UniProt O75116). The data set is described as follows: Inhibition of ROCK2 (unknown origin) using biotin as substrate incubated for 1 hr by HTRF assay.
For data set [18], the target named is Rho-associated protein kinase 1 (Homo sapiens, UniProt Q13464). The data set is described as follows: Inhibition of ROCK1 (unknown origin) using biotin as substrate incubated for 1 hr by HTRF assay.
Rho-associated protein kinase 1, sequence (Q13464 whole entry): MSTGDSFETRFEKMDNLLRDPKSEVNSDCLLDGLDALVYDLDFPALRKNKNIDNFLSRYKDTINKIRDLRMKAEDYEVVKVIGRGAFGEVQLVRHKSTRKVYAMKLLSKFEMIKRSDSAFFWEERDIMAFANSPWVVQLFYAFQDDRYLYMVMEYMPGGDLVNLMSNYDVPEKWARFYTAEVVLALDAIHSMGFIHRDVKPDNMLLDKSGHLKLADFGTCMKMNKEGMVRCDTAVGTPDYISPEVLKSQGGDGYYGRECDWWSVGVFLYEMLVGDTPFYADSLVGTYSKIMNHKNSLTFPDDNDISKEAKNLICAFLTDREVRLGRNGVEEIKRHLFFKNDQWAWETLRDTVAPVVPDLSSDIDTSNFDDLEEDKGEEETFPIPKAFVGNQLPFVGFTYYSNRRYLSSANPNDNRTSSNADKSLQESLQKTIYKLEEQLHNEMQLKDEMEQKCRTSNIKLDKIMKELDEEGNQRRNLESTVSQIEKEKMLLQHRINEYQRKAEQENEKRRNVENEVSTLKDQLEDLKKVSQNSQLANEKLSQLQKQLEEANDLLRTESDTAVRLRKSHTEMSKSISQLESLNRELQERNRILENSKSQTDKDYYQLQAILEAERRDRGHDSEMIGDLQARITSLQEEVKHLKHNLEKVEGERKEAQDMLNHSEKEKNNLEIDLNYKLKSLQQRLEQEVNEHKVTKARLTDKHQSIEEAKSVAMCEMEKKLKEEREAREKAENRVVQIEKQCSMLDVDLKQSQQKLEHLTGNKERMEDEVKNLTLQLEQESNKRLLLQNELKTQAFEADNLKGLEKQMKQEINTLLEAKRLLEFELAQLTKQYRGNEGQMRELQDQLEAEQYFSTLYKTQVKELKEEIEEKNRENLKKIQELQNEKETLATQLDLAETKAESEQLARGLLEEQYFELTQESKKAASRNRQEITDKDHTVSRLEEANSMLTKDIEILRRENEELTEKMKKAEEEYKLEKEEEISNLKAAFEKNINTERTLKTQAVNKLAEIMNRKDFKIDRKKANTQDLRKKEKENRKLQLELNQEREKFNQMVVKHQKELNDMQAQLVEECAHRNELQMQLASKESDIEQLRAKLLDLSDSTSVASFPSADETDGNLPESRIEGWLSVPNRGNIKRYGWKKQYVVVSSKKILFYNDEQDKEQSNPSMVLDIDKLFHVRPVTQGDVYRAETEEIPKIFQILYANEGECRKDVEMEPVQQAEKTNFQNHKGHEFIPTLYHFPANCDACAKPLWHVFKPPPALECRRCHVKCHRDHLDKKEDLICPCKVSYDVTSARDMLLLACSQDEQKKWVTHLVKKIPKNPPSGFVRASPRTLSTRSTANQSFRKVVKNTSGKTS
In data set [19] the test system is Mus musculus. The data set is described as follows: Antiglaucoma activity in microspheres induced chronic ocular hypertension C57BL/6J mouse model assessed as reduction in intraocular pressure at 0.2% solution administered via topical instillation for three times per day and measured at 1 to 6 hrs post instillation by ophthalmotonometer. The class given is functional, organism-based. The settings on record: route top, time 1-6 hrs.

A short description of data set [20]: Ocular toxicity in C57BL/6J mouse assessed as effect on conjunctival hyperemia at 0.2% solution administered via topical instillation and measured at 1 to 4 hrs post instillation. The settings on record: in vivo, topical_or_ocular, time 1-4 hrs, route top.
A short description of data set [21]: Ocular toxicity in C57BL/6J mouse assessed as effect on conjunctival hyperemia at 0.07% solution administered via topical instillation and measured at 1 to 4 hrs post instillation in presence of ripasudil. The settings on record: in vivo, topical_or_ocular, time 1-4 hrs, route top.
Data set [22] has as its system Mus musculus. The data set is described as follows: Antiglaucoma activity in microspheres induced chronic ocular hypertension C57BL/6J mouse model assessed as reduction in intraocular pressure at 0.07% solution administered via topical instillation for three times per day and measured at 1 to 6 hrs post instillation in presence of ripasudil by ophthalmotonometer. The settings on record: route top, time 1-6 hrs. The class given is functional, organism-based.

A short description of data set [23]: Ocular toxicity in C57BL/6J mouse assessed as effect on conjunctival hyperemia at 0.26% solution administered via topical instillation and measured at 1 to 4 hrs post instillation. The settings on record: in vivo, topical_or_ocular, time 1-4 hrs, route top.
Data set [24] in a line: Ocular toxicity in New Zealand white albino rabbit assessed as effect on ocular irritation at 0.579% solution administered via topical instillation and measured at 1 to 4 hrs post instillation by draize's test. The settings on record: in vivo, topical_or_ocular, time 1-4 hrs, route top. Also on record: species or system Oryctolagus cuniculus.

Rho-associated protein kinase 2, sequence (O75116 whole entry): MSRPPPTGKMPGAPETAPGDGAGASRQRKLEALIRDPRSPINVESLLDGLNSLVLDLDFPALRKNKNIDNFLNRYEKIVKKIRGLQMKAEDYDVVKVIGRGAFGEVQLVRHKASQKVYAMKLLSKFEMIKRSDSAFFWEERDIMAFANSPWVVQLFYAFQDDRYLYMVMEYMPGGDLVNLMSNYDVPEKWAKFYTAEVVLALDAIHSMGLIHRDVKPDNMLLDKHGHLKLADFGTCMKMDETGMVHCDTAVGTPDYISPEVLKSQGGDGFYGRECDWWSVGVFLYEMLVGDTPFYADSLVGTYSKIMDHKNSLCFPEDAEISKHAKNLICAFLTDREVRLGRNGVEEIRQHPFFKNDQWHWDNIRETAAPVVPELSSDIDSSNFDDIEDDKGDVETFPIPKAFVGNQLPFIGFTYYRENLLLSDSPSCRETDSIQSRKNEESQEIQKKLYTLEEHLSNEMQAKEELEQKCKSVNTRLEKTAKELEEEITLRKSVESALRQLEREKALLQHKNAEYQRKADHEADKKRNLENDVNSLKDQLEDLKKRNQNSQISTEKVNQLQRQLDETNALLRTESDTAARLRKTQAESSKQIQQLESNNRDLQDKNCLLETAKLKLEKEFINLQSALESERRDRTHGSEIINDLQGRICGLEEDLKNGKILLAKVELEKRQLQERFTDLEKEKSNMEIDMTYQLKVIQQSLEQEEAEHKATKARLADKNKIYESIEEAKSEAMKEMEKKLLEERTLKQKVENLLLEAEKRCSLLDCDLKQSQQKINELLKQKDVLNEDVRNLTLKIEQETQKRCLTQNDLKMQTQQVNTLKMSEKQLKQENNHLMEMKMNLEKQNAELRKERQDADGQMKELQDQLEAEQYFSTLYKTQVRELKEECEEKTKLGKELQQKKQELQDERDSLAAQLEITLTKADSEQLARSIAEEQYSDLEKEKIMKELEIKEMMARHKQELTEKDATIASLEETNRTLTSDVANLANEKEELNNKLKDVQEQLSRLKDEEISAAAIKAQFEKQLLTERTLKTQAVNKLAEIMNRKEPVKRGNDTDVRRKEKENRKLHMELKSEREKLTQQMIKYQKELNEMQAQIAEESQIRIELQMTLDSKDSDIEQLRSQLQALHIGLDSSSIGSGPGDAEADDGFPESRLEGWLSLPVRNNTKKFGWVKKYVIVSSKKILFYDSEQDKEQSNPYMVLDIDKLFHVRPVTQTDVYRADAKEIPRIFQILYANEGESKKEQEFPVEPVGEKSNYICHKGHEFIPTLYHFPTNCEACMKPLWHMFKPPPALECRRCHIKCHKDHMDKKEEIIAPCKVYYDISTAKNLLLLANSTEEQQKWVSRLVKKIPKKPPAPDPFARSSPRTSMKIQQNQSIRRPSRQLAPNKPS

Regarding `C[C@H]1CN(C(=O)OCCCCO[N+](=O)[O-])CCCN1S(=O)(=O)c1cccc2cncc(F)c12` [listing 1 of 2 here], the outcome in the data set on Mus musculus [1], with HTM [2], in the data set on HTM [3], with HTM [4], in the data set with HTM [5] and in the data set with HTM [6] was Active. The outcome in the data set on HTM [7], with HTM [8], in the data set with HTM [9], in the data set with HTM [10], with Mus musculus [11] and in the data set on HTM [12] was Active. Moreover, the result with Mus musculus [13], with Mus musculus [14], with HTM [15] and with HTM [16] was Active.
By IC50 is commonly meant the concentration that inhibits the measured activity by half. With `C[C@H]1CN(C(=O)OCCCO[N+](=O)[O-])CCCN1S(=O)(=O)c1cccc2cncc(F)c12`, the result in the data set with HTM [3], in the data set with HTM [5], with HTM [8], in the data set on HTM [10], in the data set on HTM [12] and in the data set on HTM [16] was Active. Besides, the results for the half-maximal inhibitory concentration (IC50) in [17] and in data set [18] were 25.1 nM and 104 nM, respectively.
As to `C[C@H]1CN(C(=O)OCCO[N+](=O)[O-])CCCN1S(=O)(=O)c1cccc2cncc(F)c12`, the result in the data set on HTM [3], with HTM [5], in the data set on HTM [8], with HTM [10], in the data set on HTM [12] and with HTM [16] was Active. The IC50 in data set [17] is 58.4 nM; in data set [18], 47.3 nM.
In the case of `C[C@H]1CN(C(=O)OCCCCO[N+](=O)[O-])CCCN1S(=O)(=O)c1cccc2cncc(F)c12` [listing 2 of 2 here], the IC50 in data set [17] came out at 47.4 nM; in data set [18] it was 58.3 nM.
In the case of `C[C@H]1CNCCCN1S(=O)(=O)c1cccc2cncc(F)c12.Cl.O.O` [RIPASUDIL HYDROCHLORIDE DIHYDRATE], the outcome in the data set on HTM [3], with Mus musculus [19], in the data set with HTM [5], in the data set on HTM [6], in the data set with HTM [8] and with HTM [15] was Active. The Activity result in data set [20] was “Non-Toxic”. Further, the half-inhibitory concentration (IC50) in data set [17] was 21.4 nM.
Regarding `O=[N+]([O-])OCCCCO`, the Activity entry in [21] is listed as “Non-Toxic”. Besides, in the data set with Mus musculus [22], the result was Active.
Consider `C[C@H]1CN(C(=O)O[C@@H]2CO[C@H]3[C@@H]2OC[C@@H]3O[N+](=O)[O-])CCCN1S(=O)(=O)c1cccc2cncc(F)c12`, for which the outcome with HTM [3], in the data set on HTM [5], with HTM [8], in the data set with HTM [10], in the data set on HTM [12] and with HTM [16] was Active. The results for the IC50 in data set [17] and in data set [18] were 19.5 nM and 53.6 nM, respectively.
As for `C[C@H]1CN(C(=O)OCCCCO[N+](=O)[O-])CCCN1S(=O)(=O)c1cccc2cncc(F)c12.Cl`, the Activity result in data set [23] and in [24] was “Non-Toxic” each time. The IC50 in data set [17] was 16.6 nM; in [18], 34.2 nM.
Turning to `CCCCOC(=O)N1CCCN(S(=O)(=O)c2cccc3cncc(F)c23)[C@@H](C)C1`, the outcome in the data set on HTM [4], with HTM [6], in the data set with HTM [7] and in the data set with HTM [15] was Active.
With `C[C@H]1CN(C(=O)OCCCCCO[N+](=O)[O-])CCCN1S(=O)(=O)c1cccc2cncc(F)c12`, the result with HTM [3], in the data set on HTM [5], in the data set with HTM [8], with HTM [10], with HTM [12] and with HTM [16] was Active. In addition, the figures for the IC50 in data set [17] and in data set [18] were 25.2 nM and 44.6 nM, respectively.
